In patent US8865901B2, “Gain-of-function Bcl-2 inhibitors” (priority 2009, dated 2014):
Where two headings read alike, the source gives them in different places.

Columns and labels:
[1] = system: TAMH cells overexpressing Bcl-xL (TAMH-Bcl-xL, Tabx2s); assay: Cytotoxicity / apoptosis induction in TAMH cells overexpressing Bcl-xL; assay type: cell-based; details: for Neo:Bcl: ratio Neo to Bcl-xL cells
Procedure: (§1) To examine the sensitivity of cells over-expressing Bcl-xL to various mitochondrial inhibitors and apoptosis inducers, cell lines over-expressing Bcl-xL were prepared and tested according to Hockenberry et al. U.S. Pat. No. 7,241,804, hereby incorporated by reference in its entirety. Competitive binding of compounds with fluorescent antimycin A3, and competitive binding of compounds with BH3 peptide and Bcl-2. Competitive binding of compounds with BH-3 peptide were also measured using Bcl-xL as previously described. Id.
(§2) Cell lines were grown in RPMI 1640 medium (Gibco, Grand Island, N.Y.) supplemented with 5% fetal bovine serum (Hyclone, Logan, Utah). Also shown is the ratio of TAMH cells expressing Bcl-xL to those expressing A142L (WT:142L). The assay measures the potency of various compounds with respect to inducing apoptosis in these cells.
(§3) The compounds described in Example 2 were tested for their ability to inhibit Bcl-2 gain-of-function in TAMH cells, TAMH cells overexpressing […] (TAMH-Bcl-xL), TAMH cells transfected with Neo vector (Neo), TAMH cells over expressing a variant of Bcl-xL (A142L) using the methods of Example 1. 3-6.
(§4) The effects of the compounds described in Example 8 on TAMH cells, TAMH cells overexpressing Bcl-xL (TAMH-Bcl-xL), TAMH cells transfected with Neo vector (Neo), TAMH cells over expressing a variant of Bcl-xL (A142L) is shown in Table 8
(§5) The effects of the compounds described in Example 10 on TAMH cells, TAMH cells overexpressing Bcl-xL (TAMH-Bcl-xL), TAMH cells transfected with Neo vector (Neo), TAMH cells over expressing a variant of Bcl-xL (A142L) is shown in the following Table 10

[2] = system: TAMH cells over expressing a variant of Bcl-xL (A142L); assay: Cytotoxicity / apoptosis induction in TAMH cells over expressing Bcl-xL variant A142L; assay type: cell-based; details: Table 4; for EC50: TAMH A142L cells; for WT:142L: ratio of TAMH cells expressing Bcl-xL to those expressing A142L
Procedure: as §1, §2, §3

[3] = system: TAMH cells transfected with Neo vector (Neo); assay: Cytotoxicity / apoptosis induction in TAMH cells transfected with Neo vector; assay type: cell-based
Procedure: as §1, §2, §3, §4, §5

H23, NSCLC tumor = assay: Apoptosis induction against solid tumors in vitro, H23; assay type: cell-based
Procedure: (§6) The ability of compounds from Example 2 to induce apoptosis against solid tumors in vitro was tested. Four solid tumors were tested: OVCAR-3, an ovarian tumor; COLO205, a colonic tumor; HOP-62 and H23, both NSCLC tumors. The experimental compounds were compared to 2MeAA and to ABT-737, a clinical stage compound owned by Abbott Pharma.
(§7) The ability of compounds of Example 8 to induce apoptosis against solid tumors in vitro was tested. Four solid tumors were tested: OVCAR-3, an ovarian tumor; COLO205, a colonic tumor; HOP-62 and H23, both NSCLC tumors. The experimental compounds, […]

HOP-62, NSCLC tumor = assay: Apoptosis induction against solid tumors in vitro, HOP-62; assay type: cell-based
Procedure: as §6, §7

COLO205, a colonic tumor = assay: Apoptosis induction against solid tumors in vitro, COLO205; assay type: cell-based
Procedure: as §6, §7

[4] = system: OVCAR-3, an ovarian tumor; assay: Apoptosis induction against solid tumors in vitro, OVCAR-3; assay type: cell-based
Procedure: as §6, §7

[5] = Table 3, TAMH cells overexpressing Bcl-xL (Tabx2s), read-out: 2S EC50
[6] = Table 4, TAMH-Bcl-xL cells, read-out: Bcl-xL
[7] = Table 3, TAMH Neo cells, read-out: Neo EC50
[8] = Table 4, TAMH Neo cells, read-out: Neo
[9] = Homo sapiens, NCI-H23, Table 21
[10] = Homo sapiens, COLO 205, Table 21
[11] = Table 5, TAMH cells overexpressing Bcl-xL (Tabx2s), read-out: 2S EC50
[12] = Table 5, TAMH Neo cells, read-out: Neo EC50

Compound: COc1cc(Br)cc(/C=N/Nc2ccc(C(F)(F)F)cc2)c1O [Compound 0333]
- EC50 [1, 5]: 2.2 µM
- EC50 [1, 6]: 2.7 µM
- Neo:Bcl ([1]; Table 4): 9.2
- EC50 [2]: 22.2 µM
- WT:142L [2]: 8.2
- EC50 [3, 7]: 26.9 µM
- EC50 [3, 8]: > 25 µM
- Log P (Log P; Table 3): 6.510

Compound: O=[N+]([O-])c1ccc(O)c(/C=N/Nc2nccc3ccccc23)c1O [FH314]
- EC50 (H23, NSCLC tumor; [9]): 8.2 µM
- EC50 (HOP-62, NSCLC tumor; Homo sapiens, Table 21): 17.5 µM
- EC50 (COLO205, a colonic tumor; [10]): 9.2 µM
- EC50 ([4]; Homo sapiens, Table 21): 3.8 µM

Compound: Cc1cccc(Cc2ccc(Cc3cccc(C)c3)c(O)c2)c1 [Compound 0051]
- EC50 [1, 11]: 1.5 µM
- EC50 [3, 12]: 15.4 µM
- Log P (Log P; Table 5): 6.18

Compound: CC(C)(C)c1cc(Br)c(O)c(/C=N/Nc2ccccn2)c1 [Compound 0401]
- EC50 [1, 5]: 1.7 µM
- EC50 [1, 6]: 4.4 µM
- Neo:Bcl ([1]; Table 4): 5.7
- EC50 [2]: > 25 µM
- WT:142L [2]: 2.2
- EC50 [3, 7]: 40.8 µM
- EC50 [3, 8]: > 25 µM
- Log P (Log P; Table 3): 4.810

Compound: Oc1c(Cl)cc(Cl)cc1/C=N/Nc1ccccn1 [Compound 0233]
- EC50 [1, 5]: 3.5 µM
- EC50 [3, 7]: ≥ 50 µM
- Log P (Log P; Table 3): 3.190

Compound: COc1c(Cl)cc(/C=N/Nc2ccccn2)c(O)c1Br [Compound 0355]
- EC50 [1, 5]: 1.6 µM
- EC50 [3, 7]: 33 µM
- Log P (Log P; Table 3): 3.820

Compound: Oc1c(Cl)cc(Cl)cc1/C=N/Nc1ccc(C(F)(F)F)cn1 [Compound 0235]
- EC50 (H23, NSCLC tumor; Table 7): 3.7 µM
- EC50 (HOP-62, NSCLC tumor; Table 7): 8.3 µM
- EC50 [1, 6]: 3.9 µM
- Neo:Bcl ([1]; Table 4): 2.8
- EC50 [2]: 8.5 µM
- WT:142L [2]: 2.2
- EC50 (COLO205, a colonic tumor; Table 7): 6.7 µM
- EC50 [3, 8]: 11 µM
- EC50 ([4]; Table 7): 2.7 µM

Compound: O=C(/N=C/c1cc(Br)cc(Br)c1O)c1ccccc1 [Compound 0347]
- EC50 ([1]; Table 6, TAMH cells overexpressing Bcl-xL (Tabx2s), read-out: 2S EC50): 0.5 µM
- EC50 ([3]; Table 6, TAMH Neo cells, read-out: Neo EC50): 5.8 µM
- Log P (Log P; Table 6): 4.250

Compound: Oc1c(Cl)cc(Cl)cc1/C=N/Nc1ccc(C(F)(F)F)cn1 [FH092]
- EC50 (H23, NSCLC tumor; [9]): 3.7 µM
- EC50 (HOP-62, NSCLC tumor; Homo sapiens, Table 21): 8.3 µM
- EC50 (COLO205, a colonic tumor; [10]): 6.7 µM
- EC50 ([4]; Homo sapiens, Table 21): 2.7 µM

Compound: Oc1c(Br)cc(Br)cc1/C=N/Nc1ccccn1 [Compound 0245]
- EC50 [1, 5]: 3.3 µM
- EC50 [3, 7]: ≥ 50 µM
- Log P (Log P; Table 3): 3.540

Compound: 2-methoxy antimycin A [Compound 2-MeAA, reference compound]
- EC50 (H23, NSCLC tumor; Table 7): 2.7 µM
- EC50 (H23, NSCLC tumor; Table 21): 2.7 µM
- EC50 (HOP-62, NSCLC tumor; Table 7): 3.9 µM
- EC50 (HOP-62, NSCLC tumor; Table 21): 3.9 µM
- EC50 [1, 6]: 2.5 µM
- Neo:Bcl ([1]; Table 4): 6.9
- EC50 [2]: 10.3 µM
- WT:142L [2]: 4.1
- EC50 (COLO205, a colonic tumor; Table 7): 1.8 µM
- EC50 (COLO205, a colonic tumor; Table 21): 1.8 µM
- EC50 [3, 8]: 15.6 µM
- EC50 ([4]; Table 7): 3.5 µM
- EC50 ([4]; Table 21): 3.5 µM

Compound: COc1cc(Br)c(O)c(/C=N/NC(=O)c2ccccc2)c1 [Compound 0283]
- EC50 [1, 5]: 2.5 µM
- EC50 [1, 6]: 3.5 µM
- Neo:Bcl ([1]; Table 4): 7.1
- EC50 [2]: > 25 µM
- WT:142L [2]: 7.1
- EC50 [3, 7]: ≥ 50 µM
- EC50 [3, 8]: > 25 µM
- Log P (Log P; Table 3): 3.730

Compound: CC(C)(C)c1cc(O)c(/C=N/Nc2ccccn2)cc1Br [Compound 0353]
- EC50 [1, 5]: 1.3 µM
- EC50 [3, 7]: 10 µM
- Log P (Log P; Table 3): 4.810

Compound: Cc1ccc(OC(=O)C(C)C)c(Cc2cc(C)cc(Cc3cc(C)ccc3OC(=O)C(C)C)c2O)c1 [Compound 0127]
- EC50 [1, 11]: 3.2 µM
- Log P (Log P; Table 5): 8.31

Compound: O=[N+]([O-])c1cccc(/C=N/Nc2ccc3ccccc3n2)c1O [FH297]
- EC50 (H23, NSCLC tumor; [9]): 2.8 µM
- EC50 (HOP-62, NSCLC tumor; Homo sapiens, Table 21): 2.7 µM
- EC50 (COLO205, a colonic tumor; [10]): 1 µM
- EC50 ([4]; Homo sapiens, Table 21): 1.5 µM

Compound: CC(=O)Oc1ccc(C)cc1Cc1cc(C)cc(Cc2cc(C)ccc2OC(C)=O)c1OC(C)=O [Compound 0098]
- EC50 [1, 11]: 1.6 µM
- EC50 [3, 12]: 10.4 µM
- Log P (Log P; Table 5): 7.45

Compound: Oc1c(Br)cc(Cl)cc1/C=N/Nc1ccc(C(F)(F)F)cn1 [FH096]
- EC50 (H23, NSCLC tumor; [9]): 5.6 µM
- EC50 (HOP-62, NSCLC tumor; Homo sapiens, Table 21): 19.1 µM
- EC50 (COLO205, a colonic tumor; [10]): > 25 µM
- EC50 ([4]; Homo sapiens, Table 21): 4.2 µM

Compound: CN(Cc1cc(C(C)(C)C)cc(Br)c1O)Cc1cc(C(C)(C)C)cc(Br)c1O [Compound 48881]
- Neo/Bcl-XL ([1]; Table 19): 4.6
- EC50 ([1]; Table 19, read-out: Bcl-XL): 6.1 µM
- EC50 ([3]; Table 19, read-out: Neo): 28 µM
